Measurements from patent US7592308B2, “F3W variants of the lantibiotic mersacidin and its use” (priority 2004, dated 2009).
Values after ≈ are worked out from the molar mass of the structure shown. Where two headings read alike, the source gives them in different places. Square brackets hold non-standard residues; d marks the D form. Ends that are not written are not given here. Dha = C=C(N)C(=O)O

Key:
S. aureus R33 = assay type: cell-based, Staphylococcus aureus; details: Table 8A; MHB + 50 μg/ml calcium; duplicate
Protocol: (§1) A selection of the variants produced in Example 1 above were tested further for activity against a range of bacteria. Minimum inhibitory concentrations (MICs) for all organisms with the exception of Streptococcus pneumoniae were determined by two-fold serial antibiotic dilutions in Mueller-Hinton broth (MHB) supplemented with 50 μg/ml calcium as calcium chloride dihydrate. Minimum inhibitory concentrations (MICs) for S. pneumoniae were determined by two-fold serial antibiotic dilutions in Brain Heart Infusion (BHI) broth supplemented with 50 μg/ml calcium as calcium chloride dihydrate. Antimicrobial agent stock solutions were prepared and stored according to NCCLS standard M7-A6.
(§2) Actively growing broth cultures were diluted to contain […] by adjusting to an absorbance of 0.2-0.3 at 600 nm, equivalent to the McFarland 0.5 standard. They were then diluted a further 1:100 in broth. The assays were performed in duplicate in sterile 96-well microtitre plates in a total volume of 200 μl (160 μl broth, 20 μl antibiotic, 20 μl inoculum) in a concentration range from 64 μg/ml to 0.06 μg/ml. The 12th well of the microtitre plate contained no antimicrobial agent. Vancomycin was used as a reference antibiotic for quality control. Plates were incubated aerobically, shaking, for 18-20 hours at 37° C. with the MIC defined as the lowest concentration of drug that produced no visible growth.

S. aureus SH1000 = assay type: cell-based, Staphylococcus aureus; details: Table 8A; MHB + 50 μg/ml calcium; duplicate
Protocol: as §1, §2

M. luteus 4698 = assay type: cell-based, Micrococcus luteus
Protocol: as §1, §2

E. faecalis 29212 = assay: MIC, two-fold serial dilution in broth; assay type: cell-based, Enterococcus faecalis; details: Table 8A; MHB + 50 μg/ml calcium; duplicate
Protocol: as §1, §2

E. faecium 19579 = assay: MIC, two-fold serial dilution in broth; assay type: cell-based, Enterococcus faecium; details: Table 8A; MHB + 50 μg/ml calcium; duplicate
Protocol: as §1, §2

E. faecium 11.4103A = assay: MIC, two-fold serial dilution in broth; assay type: cell-based, Enterococcus faecium; details: Table 8B; MHB + 50 μg/ml calcium; duplicate
Protocol: as §1, §2

S. pneumoniae R6 = assay type: cell-based, Streptococcus pneumoniae; details: Table 8B; BHI broth + 50 μg/ml calcium; duplicate
Protocol: as §1, §2

S. epidermidis 11047 = assay type: cell-based, Staphylococcus epidermidis; details: Table 8B; MHB + 50 μg/ml calcium; duplicate
Protocol: as §1, §2

E. faecium 7131121 = assay: MIC, two-fold serial dilution in broth; assay type: cell-based, Enterococcus faecium; details: Table 8A; MHB + 50 μg/ml calcium; duplicate
Protocol: as §1, §2

E. faecium 4147-1 = assay type: cell-based, Enterococcus faecium; details: 4147-1
Protocol: (§3) MIC tests were performed with some of the variants of Example 2 on a range of other organisms. The results are shown in Tables 9 and 10 (figures in μg/ml): […]

E. faecium 4147 VRE = assay type: cell-based, Enterococcus faecium; details: 4147 VRE
Protocol: as §3

S. pyogenes 16205 = assay type: cell-based, Streptococcus pyogenes
Protocol: as §3

S. pyogenes 13608 = assay type: cell-based, Streptococcus pyogenes
Protocol: as §3

E. coli SM1411 = assay: MIC, two-fold serial dilution in broth; assay type: cell-based; details: Table 8B; MHB + 50 μg/ml calcium; duplicate
Protocol: as §1
as §2, with “Plates were incubated aerobically, shaking, for 18-20 hours at 37° C. with the MIC defined as the lowest concentration of drug that produced no visible growth.” left out

M. luteus = details: data of Szekat et al.; cited from earlier work
S. aureus 1012-13 MRSA = assay type: cell-based, Staphylococcus aureus
Protocol: as §3

S. aureus SG511 = assay type: cell-based, Staphylococcus aureus
Protocol: as §3

S. aureus CS = assay type: cell-based, Staphylococcus aureus
Protocol: as §3

S. aureus COL MRSA = assay type: cell-based, Staphylococcus aureus
Protocol: as §3

Compound | MIC S. aureus R33 (S. aureus R33) | MIC S. aureus SH1000 (S. aureus SH1000) | MIC M. luteus 4698 (M. luteus 4698; Table 8B, MHB + 50 μg/ml calcium, duplicate) | MIC E. faecalis 29212 (E. faecalis 29212) | MIC E. faecium 19579 (E. faecium 19579) | MIC E. faecium 11.4103A (E. faecium 11.4103A) | MIC S. pneumoniae R6 (S. pneumoniae R6) | MIC S. epidermidis 11047 (S. epidermidis 11047) | MIC E. faecium 7131121 (E. faecium 7131121) | MIC E. faecium 4147-1 (E. faecium 4147-1) | MIC E. faecium 4147 VRE (E. faecium 4147 VRE) | MIC S. pyogenes 16205 (S. pyogenes 16205) | MIC S. pyogenes 13608 (S. pyogenes 13608) | MIC M. luteus 4698 (M. luteus 4698; 4698) | MIC E. coli SM1411 (E. coli SM1411) | MIC against M. luteus (M. luteus) | MIC S. aureus 1012-13 MRSA (S. aureus 1012-13 MRSA) | MIC S. aureus SG511 (S. aureus SG511) | MIC S. aureus CS (S. aureus CS) | MIC S. aureus COL MRSA (S. aureus COL MRSA)
G10V: mersacidin variant (CTFTLPGGGVVCTLT[Dha]ECIC; thioether (positions not given here); not fully specified; UniProt P43683 49-68, looked up, variant G10V) | >64, >64 μg/ml | >64, >64 μg/ml | <4, <4 μg/ml | >64, >64 μg/ml | >64, >64 μg/ml | >64, >64 μg/ml | – | – | – | – | – | – | – | – | – | – | – | – | – | –
G10N: mersacidin variant (CTFTLPGGGNVCTLT[Dha]ECIC; thioether (positions not given here); not fully specified; UniProt P43683 49-68, looked up, variant G10N) | >64, >64 μg/ml | >64, >64 μg/ml | – | >64, >64 μg/ml | >64, >64 μg/ml | – | >64, >64 μg/ml | >64, >64 μg/ml | >64, >64 μg/ml | – | – | – | – | – | – | – | – | – | – | –
C=C1NC(=O)C2NC(=O)[C@H](CC(C)C)NC(=O)C(NC(=O)[C@@H]3CSC(C)C(NC(=O)[C@H](Cc4ccccc4)NC(=O)C4NC(=O)[C@@H](N)CSC4C)C(=O)N[C@@H](CC(C)C)C(=O)N4CCC[C@H]4C(=O)NCC(=O)NCC(=O)NCC(=O)NCC(=O)N[C@@H](C(C)C)C(=O)N3)C(C)SC[C@H](NC(=O)[C@H](CCC(=O)O)NC1=O)C(=O)N[C@@H]([C@@H](C)CC)C(=O)NC=CSC2C (stereo partly shown) [Mersacidin, mersacidin] | – | – | – | – | – | – | <4, <4 μg/ml | – | – | 64 µg/mL (≈ 35 µM) | 64 µg/mL (≈ 35 µM) | 0.5 µg/mL (≈ 0.274 µM) | 0.25 µg/mL (≈ 0.137 µM) | 0.5 µg/mL (≈ 0.274 µM) | >64, >64 μg/ml | 0.195 µg/mL (≈ 0.107 µM) | 8 µg/mL (≈ 4.38 µM) | 2 µg/mL (≈ 1.1 µM) | 4 µg/mL (≈ 2.19 µM) | 16 µg/mL (≈ 8.76 µM)
